SMILES strings stand for the structures.

From US5998654A, “Retinoic acid receptor antagonist compounds and methods” (Ligand Pharmaceuticals Incorporated, priority 1997, dated 1999) come the findings set out here.

Test [1] has as its target T1, RARα (Homo sapiens, UniProt P10276).
T1 sequence (P10276 1-462): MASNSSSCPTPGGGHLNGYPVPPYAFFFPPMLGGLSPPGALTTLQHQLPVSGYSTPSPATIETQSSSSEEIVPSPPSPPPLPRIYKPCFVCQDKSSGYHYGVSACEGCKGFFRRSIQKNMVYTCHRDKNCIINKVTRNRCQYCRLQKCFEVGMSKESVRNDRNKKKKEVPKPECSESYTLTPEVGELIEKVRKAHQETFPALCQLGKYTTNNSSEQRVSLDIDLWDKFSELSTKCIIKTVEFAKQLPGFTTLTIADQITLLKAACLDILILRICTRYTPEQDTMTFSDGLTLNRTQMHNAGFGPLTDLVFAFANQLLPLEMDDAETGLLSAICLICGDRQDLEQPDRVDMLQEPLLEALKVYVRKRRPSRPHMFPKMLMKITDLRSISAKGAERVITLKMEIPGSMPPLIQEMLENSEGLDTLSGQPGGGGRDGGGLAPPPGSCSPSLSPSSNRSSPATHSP
Description: RAR binding, RARα. The note with it: Kd from IC50 by Cheng-Prussof equation. As for the experimental part: (§1) Non-specific binding was defined as that binding remaining in the presence of 500 nM of the appropriate unlabelled compound. At the end of the incubation period, bound from free ligand were separated. The amount of bound tritiated retinoids was determined by liquid scintillation counting of an aliquot (700 μL) of the supernatant fluid or the hydroxylapatite pellet.
(§2) After correcting for non-specific binding, IC50 values were determined. […] The IC50 value was determined graphically from a log-logit plot of the data. The Kd values were determined by application of the Cheng-Prussof equation to the IC50 values, the labeled ligand concentration and the Kd of the labeled ligand.

A further test concerns the target T2, RARβ (Homo sapiens, UniProt P10826).
T2 sequence (P10826 1-448 isoform P10826-2): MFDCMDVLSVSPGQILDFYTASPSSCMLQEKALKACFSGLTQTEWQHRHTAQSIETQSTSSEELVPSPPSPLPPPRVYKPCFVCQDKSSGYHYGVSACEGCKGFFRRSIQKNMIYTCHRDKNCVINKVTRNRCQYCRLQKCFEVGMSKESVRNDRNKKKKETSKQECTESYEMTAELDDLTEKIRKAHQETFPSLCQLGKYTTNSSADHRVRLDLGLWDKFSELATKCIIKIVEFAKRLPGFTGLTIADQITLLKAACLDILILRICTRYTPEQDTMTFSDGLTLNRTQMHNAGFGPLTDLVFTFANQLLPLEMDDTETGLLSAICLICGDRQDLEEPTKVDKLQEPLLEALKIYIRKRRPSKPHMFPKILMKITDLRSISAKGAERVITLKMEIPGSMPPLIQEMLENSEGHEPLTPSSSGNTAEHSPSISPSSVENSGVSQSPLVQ
As to the kind of experiment: RAR binding, RARβ. Particulars: Kd from IC50 by Cheng-Prussof equation. As for the experimental part:
as §1, §2

For test [2], the target named is T1, RARα. As to the kind of experiment: co-transfection assay, agonist activity on RARα. It counts as cell-based. The note with it: CV-1 cells; read-out: EC50 agonist potency, RARα. Details: expressed in transfected cells; host or cells: CV-1 cells (African green monkey kidney). The source says:
This assay is described in further detail in U.S. Pat. Nos. 4,981,784 and 5,071,773, the disclosures of which are incorporated herein by reference.
In the co-transfection assay, a cloned cDNA for an IR (e.g., human RARα:, RARβ, RXRγ) under the control of a constitutive promoter (e.g., the SV 40 promoter) is introduced by transfection (a procedure to induce cells to take up foreign genes) into a background cell substantially devoid of endogenous IRs. This introduced gene directs the recipient cells to make the IR protein of interest. A second gene is also introduced (co-transfected) into the same cells in conjunction with the IR gene. This second gene, comprising the cDNA for a reporter protein, such as firefly luciferase (LUC), is controlled by an appropriate hormone responsive promoter containing a hormone response element (HRE). This reporter plasmid functions as a reporter for the transcription-modulating activity of the target IR. Thus, the reporter acts as a surrogate for the products (mRNA then protein) normally expressed by a gene under control of the target receptor and its native hormone.
The co-transfection assay can detect small molecule agonists or antagonists of target IRs. Exposing the transfected cells to an agonist ligand compound increases reporter activity in the transfected cells. This activity can be conveniently measured, e.g., by increasing luciferase production, which reflects compound-dependent, IR-mediated increases in reporter transcription. To detect antagonists, the co-transfection assay is carried out in the presence of a constant concentration of an agonist to the target IR (e.g., all-trans retinoic acid for RARα) known to induce a defined reporter signal. Increasing concentrations of a suspected antagonist will decrease the reporter signal (e.g., luciferase production). The co-transfection assay is therefore useful to detect both agonists and antagonists of specific IRs. Furthermore, it determines not only whether a compound interacts with a particular IR, but whether this interaction mimics (agonizes) or blocks (antagonizes) the effects of the native regulatory molecules on target gene expression, as well as the specificity and strength of this interaction.
CV-1 cells (African green monkey kidney fibroblasts) were cultured in the presence of Dulbecco's Modified Eagle Medium (DMEM) supplemented with 10% charcoal resin-stripped fetal bovine serum then transferred to 96-well microtiter plates one day prior to transfection. […]

For the compound `CCCCOc1c(C(C)(C)C)cc(/C(C)=C/C=C/C(C)=C/C(=O)O)cc1C(C)(C)C` [Compound 7, 2E, 4E, 6E-[7-(3,5-Di-t-butyl-4-n-butoxyphenyl)-3-methyl]-octa-2,4,6-trienoic acid], the Kd (usually the equilibrium constant for the complex coming apart) on RARα [1] stood at 3 nM; at RARβ, 5 nM. The EC50 (commonly the concentration needed to bring the measured effect to its halfway point) on RARα [2] was more than 10000 nM.
With `CCCOc1c(C(C)(C)C)cc(/C(C)=C/C=C/C(C)=C/C(=O)O)cc1C(C)(C)C` [Compound 8, 2E, 4E, 6E-[7-(3,5-Di-t-butyl-4-n-propoxyphenyl)-3-methyl]-octa-2,4,6-trienoic acid], the results for the Kd on RARα [1] and on RARβ were 2 nM and 1 nM, respectively. At RARα [2], the EC50 was more than 10000 nM.
Taken in the same sequence, the figures for `CCCCCOc1c(C(C)(C)C)cc(/C(C)=C/C=C/C(C)=C/C(=O)O)cc1C(C)(C)C` [Compound 9, 2E, 4E, 6E-[7-(3,5-Di-t-butyl-4-n-pentoxyphenyl)-3-methyl]-octa-2,4,6-trienoic acid] were 9 nM, 5 nM and more than 10000 nM.
In the same order, the values of `C=C(c1ccccc1)c1cc(/C(C)=C/C=C/C(C)=C/C(=O)O)cc(C(C)(C)C)c1` [Compound 17, (2E,4E,6E)-7-[3-t-butyl-5-(1-phenyl-vinyl)-phenyl]-3-methyl-octa-2,4,6-trienoic acid] are 2 nM, 3 nM and more than 10000 nM.
